Test [1] relates to α-smooth muscle actin (aSMA) positive LL29 cells. As to the kind of experiment: Inhibition of the fibrotic process: αSMA staining in TGF-β1 treated LL29 fibroblasts from IPF patients. The settings on record: Homo sapiens, Fibroblast; for EC50: 96 h; for inhibition at 10 µM: read-out: percentage in parentheses after EC50 >10.
A further test concerns IL-6. As to the kind of experiment: IL-6 inhibition in LPS-stimulated human peripheral blood mononuclear cells (HTRF). The settings on record: Homo sapiens, PBMC; for EC50: 22 h; for inhibition at 10 µM: read-out: percentage in parentheses after EC50 >10. In general terms: Time-resolved FRET reads energy transfer from a long-lived donor to a nearby acceptor.
Another test has as its target GSK3β kinase (Homo sapiens, UniProt P49841). The test is described as follows: GSK3β kinase activity (Ser/Thr 09 peptide Z-lyte FRET assay). Format: biochemical. The settings on record: recombinant kinase, 46 μM ATP, one hour at room temperature; read-out: EC50.
Test [2] concerns secreted cytokines TNFα, IL-6 and KC-GRO. The test is described as follows: Secreted cytokines in Lipopolysaccharide-stimulated BV-2 cells (Table 9 does not say which cytokine). The format is cell-based, mouse. The settings on record: Mus musculus, BV-2, 5 h; read-out: EC50.
The test system of test [3] is Wnt-responsive Sp5-Luc reporter in SW480 colon carcinoma cells. The test is described as follows: Screening assay for Wnt activity (Sp5-Luc reporter gene assay). The settings on record: Homo sapiens; for EC50: SW480; for inhibition at 10 µM: SW480, read-out: percent inhibition at 10 μM.
Another test concerns the target DYRK1A kinase (Homo sapiens, UniProt Q13627). As to the kind of experiment: DYRK1A kinase activity (Ser/Thr 18 peptide Z-lyte FRET assay).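 Note: kinase activity read as coumarin/fluorescein emission ratio after development step, with unphosphorylated and phosphorylated peptide forms setting 0% and 100% controls, values from dose-response curves.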 The format is biochemical. The settings on record: recombinant DYRK1A, 30 μM ATP, one hour at room temperature.
Test [4] deals with Tau phosphorylation at Ser396 (pSer396). As to the kind of experiment: Tau phosphorylation at Ser396 (pSer396) in SH-SY5Y cells, ELISA / western blot.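 Note: decrease in pSer396 Tau measured in lysates of treated cells by colorimetric ELISA or chemiluminescent western blot, same pSer396 antibody for both.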 The format is cell-based, human. The settings on record: Homo sapiens; SH-SY5Y cells, overnight (16-18 h); read-out: pSer396 Tau EC50.
Procedure: Two days before treatment, cells were seeded onto 96 well plates at 5×10^4 cells/well.
The above synthesized compounds were screened using the cell assay procedure to assess decrease Tau phosphorylation at Ser396 (pSer396) described below.
Cells were lysed with RIPA buffer complemented with phosphatase and protease inhibitors then lysates were spun down at 12,000 g for 10 min to remove any cellular debris.
Test [5] concerns SW480 colon carcinoma cells. The test is described as follows: Cell viability assay (CellTiter-Glo). The settings on record: Homo sapiens; for EC50: SW480, 96 h; for inhibition at 10 µM: SW480, read-out: percent inhibition at 10 μM. Background: Cellular ATP, detected with luciferase, serves as a proxy for viable cell number.

Where only a bound is given, the exact number is not on record here.

Chain of GSK3β kinase (P49841 whole entry): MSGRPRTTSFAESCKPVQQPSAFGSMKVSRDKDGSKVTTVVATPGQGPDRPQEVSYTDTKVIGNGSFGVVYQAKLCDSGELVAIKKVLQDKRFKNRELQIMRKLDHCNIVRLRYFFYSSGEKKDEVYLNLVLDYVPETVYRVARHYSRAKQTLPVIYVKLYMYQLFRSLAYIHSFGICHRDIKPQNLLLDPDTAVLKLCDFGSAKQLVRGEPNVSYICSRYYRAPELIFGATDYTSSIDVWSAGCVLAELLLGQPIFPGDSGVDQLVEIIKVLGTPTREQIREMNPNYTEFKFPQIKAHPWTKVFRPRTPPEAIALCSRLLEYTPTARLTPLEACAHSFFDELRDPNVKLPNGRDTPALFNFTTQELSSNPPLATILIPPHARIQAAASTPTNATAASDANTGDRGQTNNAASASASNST

By EC50 is commonly meant the concentration needed to bring the measured effect to its halfway point. Consider `Cn1cncc1-c1cc2cc(NC(=O)C3CCC(F)(F)CC3)ncc2cn1` [Compound 4027, 4,4-Difluoro-N-(6-(1-methyl-1H-imidazol-5-yl)-2,7-naphthyridin-3-yl) cyclohexane-1-carboxamide], for which the EC50 in test [1] was greater than 10 µM; with IL-6, greater than 10 µM; at GSK3β kinase, 0.072 µM; in test [2], no less than 10 µM; in test [3] it was greater than 10 µM; at DYRK1A kinase, 0.021 µM. Besides, the EC50 is 0.219 µM in test [4] and greater than 10 µM in test [5]. Moreover, the inhibition at 10 µM in test [1] was found to be 33.9%; in the test with IL-6, 4%; in test [3] it was 17.5%; in test [5] it was 26.3%.
On to `CC(C(=O)Nc1cc2cc(-c3cncn3C)ncc2cn1)N1CCCC1` (stereo not drawn) [Compound 4041, N-(6-(1-Methyl-1H-imidazol-5-yl)-2,7-naphthyridin-3-yl)-2-(pyrrolidin-1-yl) propanamide], for which the EC50 in test [1] is 3.49 µM; in the test with IL-6, greater than 10 µM; at GSK3β kinase, 0.019 µM; in test [2], 3.9 µM; in test [3], 0.291 µM; at DYRK1A kinase it was 0.63 µM. Also, the EC50 in test [4] was 0.102 µM; in test [5] it was 4.54 µM. For the same compound, in the test with IL-6, the inhibition at 10 µM came to 0%.
`Cn1cncc1-c1cc2cc(NC(=O)c3ccc4c(c3)CNC4)ncc2cn1` [Compound 4104, N-(6-(1-Methyl-1H-imidazol-5-yl)-2,7-naphthyridin-3-yl)isoindoline-5-carboxamide]: the EC50 in test [1] was 3.08 µM; in the test on IL-6, greater than 10 µM; at GSK3β kinase it was 0.145 µM; in test [2], 1.2 µM; in test [3], greater than 10 µM; on DYRK1A kinase it was 0.003 µM. The EC50 turned out to be 10 µM in test [4] and 7.75 µM in test [5]. Further, the figures for the inhibition at 10 µM (with IL-6; in test [3]) were 5.7% and 41.3%, respectively.
Turning to `O=C(Nc1cc2cc(-c3cnco3)ncc2cn1)C1CCN(C(=O)CN2CCCC2)CC1` [Compound 4159, N-(6-(Oxazol-5-yl)-2,7-naphthyridin-3-yl)-1-(2-(pyrrolidin-1-yl)acetyl) piperidine-4-carboxamide], the EC50 in test [1] was 0.347 µM; in the test on IL-6, greater than 10 µM; at GSK3β kinase it was 0.072 µM; in test [2], 0.859 µM; in test [3], 0.972 µM; at DYRK1A kinase it was 0.004 µM. In addition, the EC50 in test [4] stood at 0.989 µM; in test [5], 8.44 µM. Also, in the test on IL-6, the inhibition at 10 µM was 10.1%.
Consider `CN(C)[C@H]1CC[C@H](C(=O)Nc2cc3cc(-c4cncs4)ncc3cn2)CC1` [Compound 4239, trans-4-(dimethylamino)-N-(6-(thiazol-5-yl)-2,7-naphthyridin-3-yl) cyclohexane-1-carboxamide], for which the EC50 in test [1] was greater than 10 µM; with IL-6, greater than 10 µM; on GSK3β kinase, 0.187 µM; in test [2], 1.7 µM; in test [3], greater than 10 µM; on DYRK1A kinase, 0.005 µM. For the same compound, the EC50 in test [4] was 0.491 µM; in test [5] it was greater than 10 µM. The inhibition at 10 µM in test [1] was 50%; in the test with IL-6, 10.5%; in test [3], 41.9%; in test [5], 27.6%.
`CN1CCC(C(=O)Nc2cc3cc(-c4cnsc4)ncc3cn2)CC1` [Compound 4319, N-(6-(Isothiazol-4-yl)-2,7-naphthyridin-3-yl)-1-methylpiperidine-4-carboxamide]: the EC50 is 1.63 µM in test [1]; greater than 10 µM with IL-6; 0.199 µM on GSK3β kinase; 0.516 µM in test [2]; 1.53 µM in test [3]; 0.039 µM at DYRK1A kinase. Besides, the EC50 in test [4] is 0.553 µM; in test [5], greater than 10 µM. Moreover, the inhibition at 10 µM in the test on IL-6 was 11.4%; in test [5], 43%.
Regarding `O=C(Nc1cc2cc(-c3cncc(NC4CCNCC4)n3)ncc2cn1)C1CCOCC1` [Compound 4504, N-(6-(6-(Piperidin-4-ylamino)pyrazin-2-yl)-2,7-naphthyridin-3-yl) tetrahydro-2H-pyran-4-carboxamide], the EC50 in test [1] was 0.384 µM; in the test on IL-6 it was greater than 10 µM; on GSK3β kinase, 0.077 µM; in test [2], 0.524 µM; in test [3] it was 3.64 µM; on DYRK1A kinase, 0.004 µM. Besides, the figures for the EC50 in test [4] and in test [5] were 10 µM and greater than 10 µM, respectively. The inhibition at 10 µM was 7.3% in the test on IL-6 and 47.9% in test [5].
Regarding `Cn1cc(-c2ccc3cnc(NC(=O)[C@H]4CC[C@H](NCCF)CC4)cc3n2)cn1` [Compound 4535, trans-4-((2-Fluoroethyl)amino)-N-(2-(1-methyl-1H-pyrazol-4-yl)-1,6-naphthyridin-7-yl) cyclohexane-1-carboxamide], the EC50 in test [1] is greater than 10 µM; in the test with IL-6 it was 2.85 µM; at GSK3β kinase it was 0.188 µM; in test [2], 0.162 µM; in test [3], 0.346 µM; on DYRK1A kinase, 0.009 µM. For the same compound, the EC50 in test [4] is 0.925 µM; in test [5], 4.05 µM. The inhibition at 10 µM in test [1] worked out at 25%.
`COCCN[C@H]1CC[C@H](C(=O)Nc2cc3nc(-c4cnn(C)c4)ccc3cn2)CC1` [Compound 4536, trans-4-((2-Methoxyethyl)amino)-N-(2-(1-methyl-1H-pyrazol-4-yl)-1,6-naphthyridin-7-yl) cyclohexane-1-carboxamide]: the EC50 in test [1] worked out at 1.14 µM; in the test with IL-6, 3.02 µM; on GSK3β kinase it was 0.319 µM; in test [2], 0.089 µM; in test [3], 0.832 µM; on DYRK1A kinase, 0.014 µM. Moreover, the EC50 in test [4] and in test [5] was greater than 10 µM each time. In addition, the inhibition at 10 µM in test [5] came out at 45.9%.
As to `Cc1ncc(-c2ccc3cnc(NC(=O)C(C)N4CCCC4)cc3n2)n1C` (stereo not drawn) [Compound 4544, N-(2-(1,2-Dimethyl-1H-imidazol-5-yl)-1,6-naphthyridin-7-yl)-2-(pyrrolidin-1-yl)propanamide], the EC50 amounted to 1.09 µM in test [1]; 7.77 µM with IL-6; 0.018 µM at GSK3β kinase; 0.353 µM in test [2]; 0.059 µM in test [3]; 0.033 µM on DYRK1A kinase. In addition, the EC50 in test [4] turned out to be 0.076 µM; in test [5] it was 5.61 µM.
With `Cc1ncc(-c2ccc3cnc(NC(=O)[C@H]4CC[C@H](CO)CC4)cc3n2)s1` [Compound 4558, trans-4-(Hydroxymethyl)-N-(2-(2-methylthiazol-5-yl)-1,6-naphthyridin-7-yl) cyclohexane-1-carboxamide], the EC50 came to 0.277 µM in test [1]; 9.23 µM in the test with IL-6; 0.1 µM at GSK3β kinase; 0.165 µM in test [2]; 2.8 µM in test [3]; 0.004 µM at DYRK1A kinase. Besides, the EC50 in test [4] stood at 7 µM; in test [5], 5.8 µM.
For `Cc1ncc(-c2ccc3cnc(NC(=O)[C@H]4CC[C@H](N(C)C)CC4)cc3n2)s1` [Compound 4559, trans-4-(Dimethylamino)-N-(2-(2-methylthiazol-5-yl)-1,6-naphthyridin-7-yl) cyclohexane-1-carboxamide], the EC50 in test [1] was 0.589 µM; with IL-6 it was 8.5 µM; at GSK3β kinase, 0.11 µM; in test [2] it was 0.411 µM; in test [3], greater than 10 µM; at DYRK1A kinase, 0.014 µM. In addition, the EC50 in test [4] is 2.4 µM; in test [5], greater than 10 µM. Also, the inhibition at 10 µM in test [3] came out at 40.8%; in test [5], 44.8%.
`Cc1ncc(-c2ccc3cnc(NC(=O)C4CCN(C5COC5)CC4)cc3n2)s1` [Compound 4560, N-(2-(2-Methylthiazol-5-yl)-1,6-naphthyridin-7-yl)-1-(oxetan-3-yl) piperidine-4-carboxamide]: the EC50 in test [1] is 0.779 µM; in the test with IL-6, greater than 10 µM; at GSK3β kinase it was 0.127 µM; in test [2], 0.117 µM; in test [3], greater than 10 µM; on DYRK1A kinase, 0.014 µM. In addition, the values for the EC50 in test [4] and in test [5] were 0.992 µM and greater than 10 µM, respectively. In addition, the inhibition at 10 µM was 2.7% in the test with IL-6, 49.7% in test [3] and 37.5% in test [5].
On to `O=C(Nc1ncc2ccc(-c3cncs3)cc2n1)[C@H]1CC[C@H](CO)CC1` [Compound 4586, trans-4-(hydroxymethyl)-N-(7-(thiazol-5-yl)quinazolin-2-yl)cyclohexane-1-carboxamide], for which the EC50 in test [1] was 4.44 µM; in the test on IL-6, greater than 10 µM; at GSK3β kinase, 0.336 µM; in test [2], 0.38 µM; in test [3], greater than 10 µM; at DYRK1A kinase, 0.002 µM. The EC50 is 8.8 µM in test [4] and greater than 10 µM in test [5]. Besides, the inhibition at 10 µM in the test on IL-6 came out at 4.8%; in test [3], 29.6%; in test [5], 25.1%.

The record behind these values is patent publication US10703748B2, “Diazanaphthalen-3-yl carboxamides and preparation and use thereof” (Samumed, LLC, priority 2017, dated 2020).
